These are literature values, as cited in patent publication US5414009A, “Azabicyclo substituted oxa- or thia-diazole compounds” (Novo Nordisk A/S, priority 1992, dated 1995).

Where two headings read alike, the source gives them in different places.

The test system of one series is M1-sites. To be noted: M1-site, pirenzepine sensitive site.
The subject of series [1] is muscarinic receptor in the CNS. Particulars: for Kd: read-out: affinity of sites labelled by 3H-Oxo.
The conditions of series [2]: in vivo.

Take `CN1CCN(CC(=O)N2c3ccccc3C(=O)Nc3cccnc32)CC1` [Pirenzepine, pirenzepine, [N-methyl-^3 H]]: the “selective binding to subtype of muscarinic receptors” value in the series with M1-sites was “binds selectively to subtype of muscarinic receptors”. Besides, in the series with M2-sites, the “interaction with M2-sites” value is on record as “also interact with M2”.
Regarding `C[N+](C)(C)CC#CCN1CCCC1=O` [Compound 3H-Oxo], the “preference for agonist domains of the receptors” value in series [1] (CNS) is “with a preference for agonist domains of the receptors”. Also, the Kd in series [1] (first of three sites (high affinity)) was 1.8 nM; in series [1] (second of three sites (medium affinity)), 20 nM; in series [1] (third of three sites), 3000 nM.
`COC(=O)C1=CCCN(C)C1` [Arecoline, methyl 1-methyl-1,2,5,6-tetrahydropyridine-3-carboxylate]: the biological half life entry in series [2] is on record as “very short biological half life”. Besides, in the series with muscarinic cholinergic, the cholinergic agonism entry is “cholinergic agonist”. In addition, the “separation between central and peripheral muscarinic effects” value with muscarinic was “small separation between central and peripheral muscarinic effects”.
